Results taken from US20120245159A1, “COMPOSITION AND METHOD FOR CONTROLLING ARTHROPOD PESTS” (SUMITOMO CHEMICAL COMPANY, LIMITED, priority 2009, published 2012).

Tests used:
Assay type in all cases: in vivo
[1] = tested on: brown planthopper (Nilaparvata lugens); test: Test Example 4: pesticidal effect against brown planthopper by foliage spray treatment of rice (control value); conditions: foliage spray of rice seedlings, third-instar larvae, after 5 days
[2] = tested on: cotton aphid (Aphis gossypii); test: Test Example 3: pesticidal effect against cotton aphid by spray treatment (cucumber leaf disk, control value); conditions: composition of the compound and clothianidin; spray over cucumber leaf disk, 25° C., 5 days; summary of Table 49
[3] = tested on: cotton aphid (Aphis gossypii); test: Test Example 1: pesticidal effect against cotton aphid by spray treatment (cucumber leaf disk, control value); conditions: composition of the compound and clothianidin; spray over cucumber leaf disk, 25° C., 5 days; summary of Table 43
Method: A commercially available clothianidin water-soluble agent, manufactured by Sumitomo Chemical Co., Ltd. under the product name of Dantotsu (registered trademark) water-soluble agent, as the neonicotinoide compound was diluted with water. […] In a well of 24-well plate containing agar, a cucumber leaf disk was put on the agar and about 15 cotton aphids (Aphis gossypii) were released on the leaf disk. The test chemical solution (20 μl/well) was sprayed over the leaf disk, followed by storage in a constant-temperature breeding room at 25° C. for 5 days, and then the number of surviving aphids was checked. A control value (%) was calculated by the following equation. […] wherein symbols represents the following meanings. Cb: Number of bugs in non-treated group before treatment Cai: Number of bugs in a non-treated group on observation Tb: Number of bugs in treated group before treatment Tai: Number of bugs in treated group on observation

[4] = tested on: brown planthopper (Nilaparvata lugens); test: Test Example 2: pesticidal effect against brown planthopper by foliage spray treatment of rice (control value); conditions: foliage spray of rice seedlings, third-instar larvae, after 5 days
[5] = composition of the compound and clothianidin, summary of Table 44
[6] = composition of the compound and dinotefuran, summary of Table 48
[7] = composition of the compound and imidacloprid, summary of Table 47
[8] = composition of the compound and nitenpyram, summary of Table 45
[9] = composition of the compound and thiamethoxam, summary of Table 46

SMILES	pesticidal efficacy against cotton aphid (Aphis gossypii) [3]	pesticidal efficacy against brown planthopper (Nilaparvata lugens) [4, 5]	pesticidal efficacy against brown planthopper (Nilaparvata lugens) [4, 6]	pesticidal efficacy against brown planthopper (Nilaparvata lugens) [4, 7]	pesticidal efficacy against brown planthopper (Nilaparvata lugens) [4, 8]	pesticidal efficacy against brown planthopper (Nilaparvata lugens) [4, 9]	also measured
CC(C)(C)COc1cnccc1-c1nc2cc(C(F)(F)F)ccc2o1 [Compound 117, 2-[3-(2,2-dimethylpropoxy)pyridin-4-yl]-5-(trifluoromethyl)benzoxazole]							pesticidal efficacy against brown planthopper (Nilaparvata lugens) ([1]; composition of the compound and clothianidin, summary of Table 50): high pesticidal efficacy; pesticidal efficacy against brown planthopper (Nilaparvata lugens) ([1]; composition of the compound and dinotefuran, summary of Table 54): high pesticidal efficacy; pesticidal efficacy against brown planthopper (Nilaparvata lugens) ([1]; composition of the compound and imidacloprid, summary of Table 53): high pesticidal efficacy; pesticidal efficacy against brown planthopper (Nilaparvata lugens) ([1]; composition of the compound and nitenpyram, summary of Table 51): high pesticidal efficacy; pesticidal efficacy against brown planthopper (Nilaparvata lugens) ([1]; composition of the compound and thiamethoxam, summary of Table 52): high pesticidal efficacy; pesticidal efficacy against cotton aphid (Aphis gossypii) [2]: high pesticidal efficacy
FC(F)(F)c1cnc2oc(-c3ccncc3C(F)(F)F)nc2c1 [Compound 144, 6-trifluoromethyl-2-[3-(trifluoromethyl)pyridin-4-yl]-oxazolo[5,4-b]pyridine]	high pesticidal efficacy						
CC(C)N(C)c1cnccc1-c1nc2cc(C(F)(F)F)ccc2o1 [Compound 132, isopropyl-methyl-{4-[5-(trifluoromethyl)benzoxazole-2-yl]pyridin-3-yl}amine]	high pesticidal efficacy						
FC(F)(F)Sc1ccc2oc(-c3ccncc3Cl)nc2c1 [Compound 77, 2-(3-chloropyridin-4-yl)-5-(trifluoromethylthio)benzoxazole]	high pesticidal efficacy	high pesticidal efficacy	high pesticidal efficacy	high pesticidal efficacy	high pesticidal efficacy	high pesticidal efficacy	
FC(F)(F)c1ccc2oc(-c3ccncc3)nc2c1 [Compound 13, 2-(pyridin-4-yl)-5-(trifluoromethyl)benzoxazole]	high pesticidal efficacy						
FC(F)(F)c1ccc2oc(-c3ccncc3-c3cccnc3)nc2c1 [Compound 128, 4-(5-trifluoromethyl-benzoxazole-2-yl)-[3,3′]bipyridinyl]	high pesticidal efficacy	high pesticidal efficacy	high pesticidal efficacy	high pesticidal efficacy	high pesticidal efficacy	high pesticidal efficacy	
COc1cnccc1-c1nc2cc3c(cc2o1)C(F)(F)OC3(F)F [Compound 88, 5,5,7,7-tetrafluoro-2-(3-methoxypyridin-4-yl)-5,7-dihydro-furo[3′,4′:4,5]benzo[1,2-d]oxazole]	high pesticidal efficacy						
CSc1cnccc1-c1nc2cc(C(F)(F)F)ccc2o1 [Compound 40, 2-[3-(methylthio)pyridin-4-yl]-5-(trifluoromethyl)benzoxazole]	high pesticidal efficacy						
[O-][n+]1ccc(-c2nc3cc(C(F)(F)F)cnc3o2)c(Cl)c1 [Compound 140, 2-(3-chloro-1-oxypyridin-4-yl)-6-(trifluoromethyl)oxazolo[5,4-b]pyridine]	high pesticidal efficacy						
CSc1cnccc1-c1nc2cc(C(F)(F)F)cnc2o1 [Compound 146, 2-(3-methylthiopyridin-4-yl)-6-(trifluoromethyl)oxazolo[5,4-b]pyridine]	high pesticidal efficacy	high pesticidal efficacy	high pesticidal efficacy	high pesticidal efficacy	high pesticidal efficacy	high pesticidal efficacy	
Cc1c[n+]([O-])ccc1-c1nc2cc(C(F)(F)F)ccc2o1 [Compound 24, 3-methyl-4-[5-(trifluoromethyl)benzoxazole-2-yl]pyridine N-oxide]	high pesticidal efficacy						
CCS(=O)(=O)c1cnccc1-c1nc2cc(C(F)(F)F)cnc2o1 [Compound 150, 2-[3-(ethanesulfonyl)pyridin-4-yl]-6-(trifluoromethyl)oxazolo[5,4-b]pyridine]	high pesticidal efficacy						
FC(F)(F)c1ccc2oc(-c3ccncc3Cl)nc2c1 [Compound 18, 2-(3-chloropyridin-4-yl)-5-(trifluoromethyl)benzoxazole]	high pesticidal efficacy	high pesticidal efficacy	high pesticidal efficacy	high pesticidal efficacy	high pesticidal efficacy	high pesticidal efficacy	
FC(F)(F)C(F)(F)c1ccc2oc(-c3ccncc3)nc2c1 [Compound 65, 5-(pentafluoroethyl)-2-(pyridin-4-yl)-benzoxazole]	high pesticidal efficacy						
CCc1cnccc1-c1nc2cc(C(F)(F)F)ccc2o1 [Compound 35, 2-(3-ethylpyridin-4-yl)-5-(trifluoromethyl)benzoxazole]	high pesticidal efficacy						
FC(F)COc1cnccc1-c1nc2cc(C(F)(F)F)ccc2o1 [Compound 110, 2-[3-(2,2-difluoroethoxy)pyridin-4-yl]-5-(trifluoromethyl)benzoxazole]	high pesticidal efficacy						
CCc1cnccc1-c1nc2cc(OC(F)(F)F)ccc2o1 [Compound 109, 2-(3-ethylpyridin-4-yl)-5-(trifluoromethoxy)benzoxazole]		high pesticidal efficacy	high pesticidal efficacy	high pesticidal efficacy	high pesticidal efficacy	high pesticidal efficacy	
CCS(=O)(=O)c1cnccc1-c1nc2cc(C(F)(F)F)ccc2o1 [Compound 133, 2-[3-(ethanesulfonyl)pyridin-4-yl]-5-(trifluoromethyl)benzoxazole]	high pesticidal efficacy						
CCc1cnccc1-c1nc2cc(C(F)(F)F)cnc2o1 [Compound 143, 2-(3-ethylpyridin-4-yl)-6-(trifluoromethyl)oxazolo[5,4-b]pyridine]	high pesticidal efficacy	high pesticidal efficacy	high pesticidal efficacy	high pesticidal efficacy	high pesticidal efficacy	high pesticidal efficacy	
FC(F)(F)c1cnc2oc(-c3ccncc3Cl)nc2c1 [Compound 139, 2-(3-chloropyridin-4-yl)-6-(trifluoromethyl)oxazolo[5,4-b]pyridine]		high pesticidal efficacy	high pesticidal efficacy	high pesticidal efficacy	high pesticidal efficacy	high pesticidal efficacy	
CC(C)Oc1cnccc1-c1nc2cc(C(F)(F)F)ccc2o1 [Compound 70, 2-(3-isopropoxypyridin-4-yl)-5-(trifluoromethyl)benzoxazole]	high pesticidal efficacy	high pesticidal efficacy	high pesticidal efficacy	high pesticidal efficacy	high pesticidal efficacy	high pesticidal efficacy	
FC(F)(F)c1cnc2oc(-c3ccncc3)nc2c1 [Compound 138, 2-pyridin-4-yl-6-(trifluoromethyl)oxazolo[5,4-b]pyridine]	high pesticidal efficacy						
